Data published in US7189691B2, “Methods and compositions for treating leukemia” (The Administrators of the Tulane Educational Fund, priority 2004, dated 2007).
“Also recorded” adds a separate entry of the source.

Tests used:
AF4-AF9 interaction [1] = target: T1, AF4-AF9 interaction (Homo sapiens, UniProt P42568); assay: Enzyme-linked protein binding assay, GST-AF4(749-775) and biotinylated AF9
T1 construct: made in house; host or cells: GST-AF4 from E. coli; AF9 by coupled in vitro transcription/translation (Promega)
T1 sequence (P42568 211-568): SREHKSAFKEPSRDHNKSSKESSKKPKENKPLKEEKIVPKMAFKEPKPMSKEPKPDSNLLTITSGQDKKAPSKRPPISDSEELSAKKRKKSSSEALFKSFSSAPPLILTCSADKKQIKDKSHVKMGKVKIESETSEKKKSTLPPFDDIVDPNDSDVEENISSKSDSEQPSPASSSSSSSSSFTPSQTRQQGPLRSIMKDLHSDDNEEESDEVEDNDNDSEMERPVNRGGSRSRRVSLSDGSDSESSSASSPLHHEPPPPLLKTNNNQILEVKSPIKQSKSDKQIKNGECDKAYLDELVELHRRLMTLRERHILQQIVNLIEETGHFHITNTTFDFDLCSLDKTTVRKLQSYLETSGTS

MV4-11 = assay: Annexin-V/PI binding assay (flow cytometry); type: cell-based; conditions: MV4-11, 50 μg/ml
Experimental: (§1) To test the possibility that growth inhibition of t(4;11) leukemia cells exposed to PFWT is the result of apoptotic cell death, annexin-V labeling of the cell membrane of the leukemic cells examined in Example 5 was used to assess apoptosis as follows (Koopman, G., et al., Blood 1994 84: 1415–1420.). Annexin V binding assays were carried out using a Vibrant™ apoptosis kit (Molecular Probes). […] For annexin V-propidium iodide (PI) staining, cells were harvested, washed once with PBS and resuspended in 100 μl annexin binding buffer. 5 μl annexin V conjugated to Alexa Fluor 488 and 2 μl of 100 μg/ml PI were added to the cell suspension and incubated at room temperature for 15 minutes. The cells were then washed once in annexin binding buffer and resuspended in 400 μl annexin binding buffer. These samples were then analyzed by flow cytometry using Coulter benchtop flow cytometer. The cells were excited by a 488 nm wavelength laser beam and the emission was measured using a 530 nm filter for annexin V and a 575 nm filter for PI.

RS4;11 = assay: Annexin-V/PI binding assay (flow cytometry); type: cell-based; conditions: RS4;11, 50 μg/ml
Experimental: as §1

MOLT-4 = assay: Annexin-V/PI binding assay (flow cytometry); type: cell-based; conditions: MOLT-4, 50 μg/ml
Experimental: as §1

AF4-AF9 interaction [2] = target: T1, AF4-AF9 interaction; assay: GST pull-down assay, GST-AF4(749-775) and biotinylated AF9; type: binding
Experimental: To determine if the synthetic peptide could disrupt the AF4-AF9 interaction in vitro, and to determine if the peptide disrupted other binding events with AF9, the following assay was performed. In additional to AF4, the carboxy-terminus of AF9 binds at least two other proteins, the Polycomb protein MPc3 and mBCoR, the mouse homolog of the human BCL-6 corepressor protein (Srinivasan 2003 and Hemenway 2001, both cited above). Using a yeast three hybrid assay similar to that described in Example 1, it was previously shown that mBCoR and FMR2 (an AF4 homolog) can simultaneously bind AF9. […] The sequences of human AF4 and AF9 and murine MPc3 and BCoR can be found in the NCBI database under Accession Nos. P51825, P42568, Q9QXV1, and AAN85318, respectively, incorporated by reference herein.
Recombinant proteins consisting of glutathione-S-transferase (GST) fused to either (a) amino acids 749–775 of human AF4 SEQ ID NO: 107, (b) amino acids 202–362 of MPc3 SEQ ID NO: 108 or (c) amino acids 925–1759 of mBCoR SEQ ID NO: 109 were isolated from E. coli. These fusion proteins were immobilized on 50 μl glutathione agarose matrix. (i.e., glutathione Sepharose™ beads). Biotinylated AF9 was synthesized by coupled in vitro transcription and translation (Promega) of a Hind III restriction fragment of human AF9 cDNA. This fragment encodes the C-terminal 368 aa of AF9 SEQ ID NO: 114.
Binding of biotinylated AF9 was performed as previously described (Srinivasan, R. S., et al., 2003, cited above; Hemenway, C. S., et al., Oncogene 2001 20: 3798–3805). Briefly, 25 μl of crude AF4 protein extract was immobilized on glutathione coated 96 well plates (Sigma) followed by extensive washing with TBS containing 0.05% Tween (TBST). […]
After extensive washing with TBST, proteins were resolved by SDS-PAGE and transferred to nitrocellulose. […] Alkaline phosphatase activity was measured by determining the optical density of the samples at 405 nm with a plate spectrophotometer. […]

Row | SMILES | AF4-AF9 interaction (AF4-AF9 interaction [1]; 10 μg/ml, FIG. 2B) | concentration dependence of AF4-AF9 interaction (AF4-AF9 interaction [1]; FIG. 2B) | lowest concentration showing activity (AF4-AF9 interaction [1]; FIG. 2B) | % Total apoptotic cells (MV4-11) | % early apoptotic cells (MV4-11) | % Total apoptotic cells (RS4;11) | % early apoptotic cells (RS4;11) | % Total apoptotic cells (MOLT-4) | % early apoptotic cells (MOLT-4) | AF4-AF9 binding (AF4-AF9 interaction [2]; peptide 10 μg/ml, western blot) | concentration at which activity plateaus (AF4-AF9 interaction [1]) | AF4-AF9 binding (AF4-AF9 interaction [2]; peptide 100 μg/ml)
1 | CC[C@H](C)[C@H](NC(=O)[C@H](CCCCN)NC(=O)[C@@H](NC(=O)[C@H](Cc1c[nH]c2ccccc12)NC(=O)[C@H](CC(C)C)NC(=O)[C@H](CCCCN)NC(=O)[C@H](CCCCN)NC(=O)[C@H](Cc1c[nH]c2ccccc12)NC(=O)[C@H](CCCCN)NC(=O)[C@H](CCSC)NC(=O)[C@H](CCCNC(=N)N)NC(=O)[C@H](CCCNC(=N)N)NC(=O)[C@H](CC(N)=O)NC(=O)[C@H](CCC(N)=O)NC(=O)[C@H](Cc1ccccc1)NC(=O)[C@H](Cc1c[nH]c2ccccc12)NC(=O)[C@H](CCCCN)NC(=O)[C@@H](NC(=O)[C@H](CCC(N)=O)NC(=O)[C@@H](N)CCCNC(=N)N)[C@@H](C)CC)C(C)C)C(=O)N[C@@H](CC(=O)O)C(=O)N[C@@H](CC(C)C)C(=O)N[C@@H](CC(=O)O)C(=O)N[C@@H](CC(C)C)C(=O)N[C@@H](CC(C)C)C(=O)N[C@@H](CO)C(=O)N[C@@H](CCCNC(=N)N)C(=O)N[C@H](C(=O)N1CCC[C@H]1C(=O)O)C(C)C [PFWT] | abolished | dose dependent reduction; also recorded: displaces AF9 from AF4 in a concentration-dependant fashion | 10 ng/mL | 45.3% | 28.42% | 34.64% | 26.18% | 18.8% | 11.64% | completely blocks AF4-AF9 binding | – | –
2 | CC[C@H](C)[C@H](NC(=O)[C@H](CCC(N)=O)NC(=O)[C@@H](N)CCCNC(=N)N)C(=O)N[C@@H](CCCCN)C(=O)N[C@@H](Cc1c[nH]c2ccccc12)C(=O)N[C@@H](Cc1ccccc1)C(=O)N[C@@H](CCC(N)=O)C(=O)N[C@@H](CC(N)=O)C(=O)N[C@@H](CCCNC(=N)N)C(=O)N[C@@H](CCCNC(=N)N)C(=O)N[C@@H](CCSC)C(=O)N[C@@H](CCCCN)C(=O)N[C@@H](Cc1c[nH]c2ccccc12)C(=O)N[C@@H](CCCCN)C(=O)N[C@@H](CCCCN)C(=O)N[C@@H](CC(C)C)C(=O)N[C@@H](Cc1c[nH]c2ccccc12)C(=O)N[C@@H](CCC(=O)O)C(=O)N[C@@H](CCCCN)C(=O)N[C@@H](CO)C(=O)N[C@@H](CC(=O)O)C(=O)N[C@@H](CC(C)C)C(=O)N[C@@H](CC(=O)O)C(=O)N[C@@H](CC(C)C)C(=O)N[C@@H](CC(C)C)C(=O)N[C@@H](CO)C(=O)N[C@@H](CCCNC(=N)N)C(=O)N[C@H](C(=O)N1CCC[C@H]1C(=O)O)C(C)C [PFmut] | – | – | – | 23.16% | 8.26% | 7.22% | 1.36% | 6.64% | 1.36% | does not interfere with AF4-AF9 binding | 40 µg/mL | binding was still apparent
